Patent US20240197719A1 (priority 2018, published 2024)

Tests used:
[1] = in vivo
[2] = in vivo; cited from earlier work
[3] = in vivo, iv; cited from earlier work

| SMILES | AUC [1] | incidence of adverse events [2] | incidence of common adverse reactions [2] | reported half-life [3] |
| --- | --- | --- | --- | --- |
| O=C1CC[C@@]2(O)[C@H]3Cc4ccc(O)c5c4[C@@]2(CCN3CC2CC2)[C@H]1O5 [naltrexone] | increased significantly |  |  |  |
| C=C1CC[C@@]2(O)[C@H]3Cc4ccc(O)c5c4[C@@]2(CCN3CC2CC2)[C@H]1O5 [Nalmefene, 17-cyclopropylmethyl-4,5α-epoxy-6-methylenemorphinan-3,14-diol] |  | less than 1% | greater than 1% | 8 to 10.8 h |
